Read-outs that look alike come from different tables or passages of the source. Ends that are not written are not given here.
Legend:
[1] = test system: P. aeruginosa ATCC 27853; format: cell-based, Pseudomonas aeruginosa
Experimental: (§1) Reference bacterial strains, including Escherichia coli BW25113, Escherichia coli ATCC 25922, Klebsiella pneumoniae ATCC 700603, Acinetobacter baumannii ATCC 19606, Enterobacter cloacae ATCC 13047, Pseudomonas aeruginosa ATCC 27853, Staphylococcus aureus ATCC 25923, and Enterococcus faecium ATCC 19434, were obtained from the American Type Culture Collection (ATCC) in Manassas, VA, USA. Strains were stored at −80 °C in glycerol stocks until use. For all experiments, cultures were grown in sterile MHB (Difco Inc., Becton Dickinson, Sparks, MD, USA). Overnight cultures were incubated at 37 °C for approximately 18 h under shacking (140 rpm, then diluted 1:30 in fresh MHB and again shaken at 140 rpm for ~2 h to reach the mid-log phase (OD ~0.3 at 600 nm). The bacterial cultures were then diluted to the desired concentration for experiments. E. coli BW25113 ΔsbmA (Keio collection) was grown in MHB with the addition of 50 μg/mL kanamycin (Sigma, Milan, Italy).
(§2) Antimicrobial activity was assessed using the Minimum Inhibitory Concentration (MIC) assay, following CLSI guidelines. Briefly, peptides were serially diluted in MHB across a 96-well round-bottom plate (Sarstedt, Milan, Italy), starting with 50 μL in the first well. A mid-log bacterial culture was diluted to 5 × 10^5 CFU/mL, and 50 μL of this suspension was added to each well (except the MHB sterility control wells). […] MIC values were confirmed by at least three independent experiments (n ≥ 3).

[2] = test system: E. faecium ATCC 19434; format: cell-based, Enterococcus faecium
Experimental: as §1
(§3) The Minimal Bactericidal Concentration (MBC) was determined by plating 25 μL from clear MIC wells onto MH-agar Petri dishes (Difco Inc., Becton Dickinson, Sparks, MD, USA), followed by overnight incubation at 37 °C. The MBC was the lowest compound concentration, reducing bacterial viability by ≥99.9%. Results were based on at least three independent experiments (n ≥ 3).

[3] = test system: E. cloacae ATCC 13047; format: cell-based, Enterobacter cloacae
Experimental: as §1, §3

[4] = test system: E. faecium ATCC 19434; format: cell-based, Enterococcus faecium; remark: listed apart in the source
Experimental: as §1, §2

[5] = test system: P. aeruginosa ATCC 27853; format: cell-based, Pseudomonas aeruginosa; remark: listed apart in the source
Experimental: as §1, §3

[6] = test system: S. aureus ATCC 25923; format: cell-based, Staphylococcus aureus
Experimental: as §1, §3

[7] = test system: A. baumannii ATCC 19606; format: cell-based, Acinetobacter baumannii; details: ATCC 19606, 18 h
Experimental: as §1, §2

[8] = test system: S. aureus ATCC 25923; format: cell-based, Staphylococcus aureus; details: ATCC 25923, 18 h
Experimental: as §1, §2

[9] = test system: E. coli BW 25113 ΔsbmA; format: cell-based, Escherichia coli; details: full MHB, 18 h at 37 °C, mode of at least three independent experiments
Experimental: as §1, §2

[10] = test system: E. coli ATCC 25922; format: cell-based, Escherichia coli
Experimental: as §1, §2

[11] = test system: E. coli BW 25113; format: cell-based, Escherichia coli; details: full MHB, 18 h at 37 °C, mode of at least three independent experiments
Experimental: as §1, §2

[12] = test system: E. cloacae ATCC 13047; format: cell-based, Enterobacter cloacae; remark: listed apart in the source
Experimental: as §1, §2

[13] = test system: E. coli BW 25113 ΔsbmA; format: cell-based, Escherichia coli; details: ≥99.9% reduction of viability, after 18 h at 37 °C, mode of at least three independent experiments
Experimental: as §1, §3

[14] = test system: E. coli ATCC 25922; format: cell-based, Escherichia coli; remark: listed apart in the source
Experimental: as §1, §3

[15] = test system: E. coli BW 25113; format: cell-based, Escherichia coli; details: ≥99.9% reduction of viability, after 18 h at 37 °C, mode of at least three independent experiments
Experimental: as §1, §3

[16] = test system: A. baumannii ATCC 19606; format: cell-based, Acinetobacter baumannii
Experimental: as §1, §3

[17] = test system: K. pneumoniae ATCC 700603; format: cell-based, Klebsiella pneumoniae
Experimental: as §1, §3

[18] = test system: K. pneumoniae ATCC 700603; format: cell-based, Klebsiella pneumoniae; details: ATCC 700603, 18 h
Experimental: as §1, §2

Sequence	MIC ([1]; ATCC 27853, 18 h)	MIC (geometric mean) ([1]; ATCC 27853, 18 h)	MBC ([2]; ATCC 19434, 18 h)	MBC ([3]; ATCC 13047, 18 h)	MBC ([5]; ATCC 27853, 18 h)	MBC ([6]; ATCC 25923, 18 h)	MBC (geometric mean) ([6]; ATCC 25923, 18 h)	MIC [7]	MIC [8]	MIC [9]	MIC ([10]; ATCC 25922, 18 h)	MIC (geometric mean) ([10]; ATCC 25922, 18 h)	MIC [11]	MBC [13]	MBC ([14]; ATCC 25922, 18 h)	MBC (geometric mean) ([14]; ATCC 25922, 18 h)	MBC [15]	MIC (geometric mean) [8]	MIC [18]	MBC ([17]; ATCC 700603, 18 h)	further results
WRIRRRWPRLPRPRWRPRFPPP [Peptide B7-T6]	8 µM	12,7 µM	>64 µM	4 µM	32 µM	32 µM	25,4 µM	1 µM	16 µM	1 µM	0.5 µM	0,6 µM	1 µM	2 µM	0.5 µM	0,6 µM	2 µM				MIC ([4]; ATCC 19434, 18 h): 16 µM; MBC (geometric mean) ([5]; ATCC 27853, 18 h): 25,4 µM; MIC ([12]; ATCC 13047, 18 h): 2 µM; MIC (geometric mean) ([12]; ATCC 13047, 18 h): 2,5 µM
WRIRRRWPRLPRPRWR [Peptide B7-005]										2 µM			1 µM				2 µM				MIC ([1]; P. aeruginosa ATCC 27853, full MHB, 18 h at 37 °C, mode of at least three independent experiments): 16 µM; MBC ([2]; E. faecium ATCC 19434, ≥99.9% reduction of viability, after 18 h at 37 °C, mode of at least three independent experiments): >64 µM; MBC ([3]; E. cloacae ATCC 13047, ≥99.9% reduction of viability, after 18 h at 37 °C, mode of at least three independent experiments): 16 µM; MIC ([4]; E. faecium ATCC 19434, full MHB, 18 h at 37 °C, mode of at least three independent experiments): 32 µM; MBC ([5]; P. aeruginosa ATCC 27853, ≥99.9% reduction of viability, after 18 h at 37 °C, mode of at least three independent experiments): 16 µM; MBC ([6]; S. aureus ATCC 25923, ≥99.9% reduction of viability, after 18 h at 37 °C, mode of at least three independent experiments): 16 µM; MBC ([16]; A. baumannii ATCC 19606, ≥99.9% reduction of viability, after 18 h at 37 °C, mode of at least three independent experiments): 4 µM; MIC ([10]; E. coli ATCC 25922, full MHB, 18 h at 37 °C, mode of at least three independent experiments): 1 µM; MIC ([12]; E. cloacae ATCC 13047, full MHB, 18 h at 37 °C, mode of at least three independent experiments): 8 µM; MBC ([17]; K. pneumoniae ATCC 700603, ≥99.9% reduction of viability, after 18 h at 37 °C, mode of at least three independent experiments): 4 µM; MBC ([14]; E. coli ATCC 25922, ≥99.9% reduction of viability, after 18 h at 37 °C, mode of at least three independent experiments): 2 µM
WRIRRRWPRLPRPRWRPWFPPRFPIPR [Peptide B7-L11]	8 µM	6,3 µM	16 µM	2 µM						2 µM	2 µM	2,5 µM	1 µM	2 µM	2 µM	2,5 µM	2 µM	5,0 µM	2 µM	4 µM	MBC (geometric mean) ([3]; ATCC 13047, 18 h): 2,5 µM; MIC (geometric mean) [18]: 2,5 µM; MBC (geometric mean) ([17]; ATCC 700603, 18 h): 3,2 µM
WRIRRRWPRLPRPRWRPWFPPR [Peptide B7-L6]	4 µM	5,0 µM	32 µM	2 µM		8 µM	10,1 µM	2 µM		2 µM	4 µM	3,2 µM		2 µM	4 µM	3,2 µM	1 µM		2 µM	4 µM	MBC (geometric mean) ([2]; ATCC 19434, 18 h): 40,3 µM; MBC (geometric mean) ([3]; ATCC 13047, 18 h): 2,5 µM; MBC ([16]; ATCC 19606, 18 h): 2 µM; MBC (geometric mean) ([16]; ATCC 19606, 18 h): 1,6 µM; MIC (geometric mean) [7]: 1,6 µM; MIC (geometric mean) [18]: 2,5 µM; MBC (geometric mean) ([17]; ATCC 700603, 18 h): 3,2 µM
WRIRRRWPRLPRPRWRPLPFPRPGPRP [Peptide B7-B11]	16 µM	12,7 µM	>64 µM	4 µM	16 µM	32 µM	40,3 µM	1 µM	16 µM	1 µM	1 µM	0,8 µM	0.5 µM				1 µM	20,2 µM	2 µM	8 µM	MBC (geometric mean) ([5]; ATCC 27853, 18 h): 20,2 µM; MBC ([16]; ATCC 19606, 18 h): 2 µM; MIC (geometric mean) [7]: 0,8 µM; MIC ([12]; ATCC 13047, 18 h): 2 µM; MBC (geometric mean) ([17]; ATCC 700603, 18 h): 6,3 µM
WRIRRRWPRLPRPRWRPLPFPR [Peptide B7-B6]	8 µM	10,1 µM	>64 µM	4 µM	16 µM	16 µM		1 µM	8 µM	2 µM	2 µM	1,6 µM	1 µM		2 µM	1,6 µM	1 µM	10,1 µM			MIC ([4]; ATCC 19434, 18 h): 8 µM; MIC (geometric mean) ([4]; ATCC 19434, 18 h): 10,1 µM

Source: paper PMC12190468, “Designing New Chimeric Proline-Rich Antimicrobial Peptides to Enhance Efficacy Toward the ESKAPE+E: Beyond Sequence Extension” (Biomolecules, 2025)
